Assay results published in article PMC5678585, “Screening a protein kinase inhibitor library against Plasmodium falciparum” (Malaria Journal, 2017).
Read-outs that look alike come from different tables or passages of the source. Each block holds one compound with its values, some of them ahead of it.

Columns and labels:
[1] = tested on: Plasmodium falciparum 3D7; test: microbe, parasite or virus in culture
Protocol: Growth inhibition was quantified using a fluorescence assay utilizing the binding of SYBR Green I to double stranded DNA, which emits a fluorescent signal at 528 nm after excitation at 485 nm. The SYBR Green assay system was adapted to maximize robustness and to align with available automation systems. The Prestwick Library then used as a pilot screen to validate the performance of the optimized assay. […] Single point screens were carried out, and the potency of compounds of interest was determined in duplicate on two independent occasions. A 96-well [^3H]-Hypoxanthine incorporation assay was also developed as a secondary assay in order to validate key compounds from each hit series in an orthogonal platform.
(§1) All data were processed using IDBS ActivityBase. […] The formula used to calculate Z’ is 1-3×(StDev_high+StDev_low)/ABS(Mean_high-Mean_low) .
Two independent assays were run.

[2] = tested on: Plasmodium falciparum 3D7; conditions: Table 7, MMV04 SAR; data reported previously ref 24, 25; read-out: P. fal. EC50; cited from earlier work
[3] = tested on: normal diploid human fibroblasts (MRC-5 pd30); conditions: read-out: MRC5 EC50, cited from earlier work
[4] = tested on: Plasmodium falciparum; test: [3H]-Hypoxanthine incorporation assay (orthogonal, radiometric); type: cell-based
Protocol: Cultures of 3D7, a P. falciparum chloriquine sensitive reference strain, were maintained in a 5% suspension of A+ human red blood cells (obtained from East of Scotland Blood Transfusion Service, Ninewells Hospital, Dundee, UK) cultured in RPMI 1640 medium (pH 7.3) supplemented with 0.5% Albumax II (Gibco Life Technologies, San Diego, CA, USA), 12 mM sodium bicarbonate, 0.2 mM hypoxanthine, and 20 mg/l gentamicin at 37 °C, in a humidified atmosphere of 1% O2, 3% CO2 with a balance of nitrogen. Growth inhibition was quantified using a fluorescence assay utilizing the binding of SYBR Green I to double stranded DNA, which emits a fluorescent signal at 528 nm after excitation at 485 nm. The SYBR Green assay system was adapted to maximize robustness and to align with available automation systems. The Prestwick Library then used as a pilot screen to validate the performance of the optimized assay. […] Single point screens were carried out, and the potency of compounds of interest was determined in duplicate on two independent occasions. A 96-well [^3H]-Hypoxanthine incorporation assay was also developed as a secondary assay in order to validate key compounds from each hit series in an orthogonal platform.
The traditionally used [^3H]-hypoxanthine incorporation assay is labour intensive, low throughput and requires the use of radio-labelled hypoxanthine.

[5] = tested on: normal diploid human fibroblasts (MRC-5 pd30); test: in vitro; type: cell-based
Protocol: (§2) Cells were plated and incubated overnight to allow them to adhere as monolayers. A working stock of each test compound was transferred to an intermediate 384-well plate and pre-diluted with minimum essential media (MEM). The pre-diluted stocks were then transferred onto the cell monolayers, and the plates were incubated for 68 h. Resazurin, to a final concentration of 50 μM was added to each well, after which plates were incubated for a further 3 h and measured for fluorescence (λ ex = 528 nm, λ em = 590 nm).
as §1
(§3) All EC50 Curve fitting was undertaken using XLFit version 4.2 using Model 205 with the following 4 parametric equation: y=A+B-A/1+[…], where A = % inhibition at bottom, B = % inhibition at top, C = EC50, D = slope, x = inhibitor concentration and y = % inhibition.

[6] = in vitro; type: cell-based; conditions: human, MRC-5 pd30 normal diploid fibroblasts (monolayers); Table 8, MMV03 SAR; read-out: MRC5 EC50
Protocol: as §2, §1, §3

[7] = read-out: EC50 Fluorescent (SYBR Green), C.I. 95%, n = 4
[8] = read-out: EC50 P. falciparum, Table 4, primary hits of kinase library
[9] = read-out: P. fal. EC50, Table 7, MMV04 SAR
[10] = C.I. 95%, n = 2, read-out: EC50 Radiometric ([3H]-hypoxanthine)
[11] = Table 4, primary hits of kinase library, read-out: EC50 MRC5 cells
[12] = Table 7, MMV04 SAR, read-out: MRC5 EC50
[13] = Plasmodium falciparum, 3D7, read-out: P. fal. EC50
[14] = read-out: P. fal. EC50, Table 8, MMV03 SAR
[15] = Table 8, MMV03 SAR, read-out: MRC5 EC50

Compound: Cc1ccc(-c2cc(C(=O)Nc3cccnc3)c3cc(Br)ccc3n2)cc1 [Compound A0031]
activity against P. falciparum relative to A0004 ([1]; MMV04 series): fivefold more active | EC50 [2]: 0.12 µM | EC50 ([3]; Table 7, MMV04 SAR, data reported previously ref 24, 25): 20 µM

Compound: O=C(Nc1cccnc1)c1cc(-c2cccnc2)nc2ccc(Br)cc12 [Compound A0004]
EC50 [1, 7]: 0.7 ± 0.07 µM | EC50 [1, 8]: 0.7 µM | EC50 [1, 9]: 0.7 µM | EC50 [4, 10]: 0.41 ± 0.47 µM | EC50 [5, 11]: > 15 µM | EC50 [5, 12]: > 15 µM

Compound: Fc1ccccc1-c1cc(Nc2ccncc2)nc(-c2ccccc2)n1 [Compound A0021]
EC50 ([3]; Table 6, MMV02 SAR, data reported previously ref 23): > 50 µM

Compound: CCOC(=O)c1ccc(NC(=O)c2cc(-c3cccnc3)nc3ccc(Cl)cc23)cc1 [Compound A0024]
EC50 [1, 9]: 0.2 µM | EC50 [5, 12]: 18 µM

Compound: Fc1ccc(-c2cc(Nc3ccncc3)nc(-c3ccccc3)n2)cc1 [Compound A0002]
EC50 [1, 7]: 0.23 ± 0.04 µM | EC50 [1, 8]: 0.2 µM | EC50 ([1]; read-out: P. fal. EC50, Table 6, MMV02 SAR): 0.2 µM | EC50 [4, 10]: 0.06 ± 0.07 µM | EC50 [5, 11]: 6 µM | EC50 ([5]; Table 6, MMV02 SAR, read-out: MRC5 EC50): 6 µM

Compound: O=C(Nc1nc2ccccc2[nH]1)c1cn(-c2ccccc2)nc1-c1cccs1 [Compound A0034]
EC50 [1, 13]: 0.8 µM | LLE (ligand-lipophilicity efficiency) ([1]; Table 8, MMV03 SAR): 2 | EC50 at 68 h [6]: 13 µM

Compound: O=C(Nc1cccnc1)c1cn(-c2ccccc2)nc1-c1cccs1 [Compound A0003]
LLE (ligand-lipophilicity efficiency) ([1]; Table 8, MMV03 SAR): 3.2 | EC50 [1, 7]: 0.59 ± 0.12 µM | EC50 [1, 8]: 0.6 µM | EC50 [1, 14]: 0.3 µM | EC50 [4, 10]: 0.15 ± 0.25 µM | EC50 [5, 11]: > 15 µM | EC50 [5, 15]: > 50 µM

Compound: CC(C)c1nn(-c2ccccc2)cc1C(=O)Nc1cccnc1 [Compound A0039]
EC50 [1, 13]: 21 µM | LLE (ligand-lipophilicity efficiency) ([1]; Table 8, MMV03 SAR): 2.1 | EC50 at 68 h [6]: 50 µM

Compound: O=C(Nc1ccncc1)c1cn(-c2ccccc2)nc1-c1cccs1 [Compound A0033]
LLE (ligand-lipophilicity efficiency) ([1]; Table 8, MMV03 SAR): 2.9 | EC50 [1, 14]: 0.7 µM | EC50 [5, 15]: 39 µM

Compound: CCN(CC)CCNC(=O)c1cn(-c2ccccc2)nc1-c1cccs1 [Compound A0037]
LLE (ligand-lipophilicity efficiency) ([1]; Table 8, MMV03 SAR): 2.7 | EC50 [1, 14]: 13 µM | EC50 [5, 15]: 18 µM

Compound: O=C(Nc1cccnc1)c1cn(-c2ccccc2)nc1-c1cccnc1 [Compound A0038]
LLE (ligand-lipophilicity efficiency) ([1]; Table 8, MMV03 SAR): 3.2 | EC50 [1, 14]: 2 µM | EC50 [5, 15]: 18 µM

Compound: O=C(Nc1nc2ccccc2[nH]1)c1cn(-c2ccccc2)nc1-c1cccnc1 [Compound A0032]
LLE (ligand-lipophilicity efficiency) ([1]; Table 8, MMV03 SAR): 2.9 | EC50 [1, 14]: 0.5 µM | EC50 [5, 15]: 21 µM

The remaining lines, values ahead:

EC50 ([1]; Plasmodium falciparum, 3D7): 0.048 ± 0.004 µM | EC50 ([4]; Plasmodium falciparum, [3H]-hypoxanthine incorporation assay, read-out: EC50): 0.007 to 0.01 µM
Compound: OC(c1cc(C(F)(F)F)nc2c(C(F)(F)F)cccc12)C1CCCCN1 (stereo not shown) [Mefloquine, reference compound]

EC50 [1, 13]: 10 µM | LLE (ligand-lipophilicity efficiency) ([1]; Table 8, MMV03 SAR): 2.8 | EC50 at 68 h [6]: 50 µM
Compound: Cc1nn(-c2ccccc2)cc1C(=O)Nc1cccnc1 [Compound A0040]

EC50 [1, 13]: > 50 µM | LLE (ligand-lipophilicity efficiency) ([1]; Table 8, MMV03 SAR): 2 | EC50 at 68 h [6]: > 50 µM
Compound: Cn1cc(C(=O)Nc2cccnc2)c(-c2cccs2)n1 [Compound A0044]

EC50 [1, 9]: 0.74 µM | EC50 [5, 12]: > 50 µM
Compound: COc1cc(NC(=O)c2cc(-c3cccnc3)nc3ccc(Br)cc23)cc(OC)c1 [Compound A0410]

EC50 [1, 13]: 14 µM | LLE (ligand-lipophilicity efficiency) ([1]; Table 8, MMV03 SAR): 1.2 | EC50 at 68 h [6]: > 50 µM
Compound: CC(C)(C)n1cc(C(=O)Nc2nc3ccccc3[nH]2)c(-c2cccnc2)n1 [Compound A0043]

LLE (ligand-lipophilicity efficiency) ([1]; Table 8, MMV03 SAR): 2.8 | EC50 [1, 14]: 0.6 µM | EC50 [5, 15]: 14 µM
Compound: O=C(Nc1nc2ccccc2[nH]1)c1cn(-c2ccc(F)cc2)nc1-c1cccnc1 [Compound A0042]

EC50 [1, 9]: 0.38 µM | EC50 [5, 12]: > 50 µM
Compound: O=C(Nc1cccnc1)c1cc(-c2cccnc2)nc2ccc(Cl)cc12 [Compound A0421]

LLE (ligand-lipophilicity efficiency) ([1]; Table 8, MMV03 SAR): 3.2 | EC50 [1, 14]: 0.4 µM | EC50 [5, 15]: 15 µM
Compound: N#Cc1ccc(-n2cc(C(=O)Nc3nc4ccccc4[nH]3)c(-c3cccnc3)n2)cc1 [Compound A0041]
